Data published in PubChem BioAssay (NCI).
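Dose response: 5 concentrations. Exposure: 48 h. Format: 96-well plates. Endpoint: linear interpolation; highest concentration if not reached. TGI: total growth inhibition.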

Tests used:
Test in all cases: DTP human tumour cell line panel, 48 h
786-0 renal = system: 786-0 renal
CCRF-CEM leukemia = system: CCRF-CEM leukemia
SW-620 colon = system: SW-620 colon
HCT-116 colon = system: HCT-116 colon
SK-OV-3 ovarian = system: SK-OV-3 ovarian
NCI-H226 lung = system: NCI-H226 lung
NCI-H460 lung = system: NCI-H460 lung
SF-295 CNS = system: SF-295 CNS
SK-MEL-5 melanoma = system: SK-MEL-5 melanoma
M19-MEL melanoma = system: M19-MEL melanoma
KM12 colon = system: KM12 colon
LXFL 529 NSCLC = system: LXFL 529 NSCLC
OVCAR-8 ovarian = system: OVCAR-8 ovarian
SNB-19 CNS = system: SNB-19 CNS
SK-MEL-2 melanoma = system: SK-MEL-2 melanoma
SN12C renal = system: SN12C renal
M14 melanoma = system: M14 melanoma
MALME-3M melanoma = system: MALME-3M melanoma
SR leukemia = system: SR leukemia
OVCAR-5 ovarian = system: OVCAR-5 ovarian
HT29 colon = system: HT29 colon
HL-60(TB) leukemia = system: HL-60(TB) leukemia
EKVX NSCLC = system: EKVX NSCLC
SF-268 CNS = system: SF-268 CNS
SNB-75 CNS = system: SNB-75 CNS
UACC-257 melanoma = system: UACC-257 melanoma
KM20L2 colon = system: KM20L2 colon
DLD-1 colon = system: DLD-1 colon
HCT-15 colon = system: HCT-15 colon
TK-10 renal = system: TK-10 renal
RPMI-8226 leukemia = system: RPMI-8226 leukemia
LOX IMVI melanoma = system: LOX IMVI melanoma
CAKI-1 renal = system: CAKI-1 renal
MOLT-4 leukemia = system: MOLT-4 leukemia
U251 CNS = system: U251 CNS
SK-MEL-28 melanoma = system: SK-MEL-28 melanoma
IGROV1 ovarian = system: IGROV1 ovarian
OVCAR-4 ovarian = system: OVCAR-4 ovarian
K-562 leukemia = system: K-562 leukemia
OVCAR-3 ovarian = system: OVCAR-3 ovarian
A549 NSCLC = system: A549 NSCLC
NCI-H522 lung = system: NCI-H522 lung
HCC-2998 colon = system: HCC-2998 colon
ACHN renal = system: ACHN renal
UO-31 renal = system: UO-31 renal
NCI-H23 lung = system: NCI-H23 lung
HOP-62 NSCLC = system: HOP-62 NSCLC
HOP-92 NSCLC = system: HOP-92 NSCLC
UACC-62 melanoma = system: UACC-62 melanoma
XF 498 CNS = system: XF 498 CNS
SF-539 CNS = system: SF-539 CNS
COLO 205 colon = system: COLO 205 colon
SNB-78 CNS = system: SNB-78 CNS
RXF 393 renal = system: RXF 393 renal
MDA-N = system: MDA-N
DMS 114 small cell lung = system: DMS 114 small cell lung
MDA-MB-231 breast = system: MDA-MB-231 breast
BT-549 breast = system: BT-549 breast
PC-3 prostate = system: PC-3 prostate
A498 renal = system: A498 renal
MCF7 breast = system: MCF7 breast
MDA-MB-435 = system: MDA-MB-435
HOP-18 NSCLC = system: HOP-18 NSCLC
NCI/ADR-RES ovarian = system: NCI/ADR-RES ovarian
DU-145 prostate = system: DU-145 prostate

Question: Which results are given for `Cc1nc(N)nc(N)c1CCCCc1ccc(N)cc1`?
Answer: TGI (786-0 renal): 18.9 µM; TGI (CCRF-CEM leukemia): 22.5 µM; TGI (SW-620 colon): 19.8 µM; TGI (HCT-116 colon): 13.4 µM; TGI (SK-OV-3 ovarian): 16.6 µM; TGI (NCI-H226 lung): 56.1 µM; TGI (NCI-H460 lung): 13.6 µM; TGI (SF-295 CNS): 14.2 µM; TGI (SK-MEL-5 melanoma): 16.5 µM; TGI (M19-MEL melanoma): 25.5 µM; TGI (KM12 colon): 21.7 µM; TGI (LXFL 529 NSCLC): 20.4 µM; TGI (OVCAR-8 ovarian): 20.6 µM; TGI (SNB-19 CNS): 20.4 µM; TGI (SK-MEL-2 melanoma): 21.3 µM; TGI (SN12C renal): 16.9 µM; TGI (M14 melanoma): 18.4 µM; TGI (MALME-3M melanoma): 18.2 µM; TGI (SR leukemia): 24.7 µM; TGI (OVCAR-5 ovarian): 23 µM; TGI (HT29 colon): 15.1 µM; TGI (HL-60(TB) leukemia): 19.4 µM; TGI (EKVX NSCLC): 27.3 µM; TGI (SF-268 CNS): 17.3 µM; TGI (SNB-75 CNS): 29.3 µM; TGI (UACC-257 melanoma): 18.5 µM; TGI (KM20L2 colon): 18.2 µM; TGI (DLD-1 colon): 31.6 µM; TGI (HCT-15 colon): 18.4 µM; TGI (TK-10 renal): 28.8 µM; TGI (RPMI-8226 leukemia): 26.5 µM; TGI (LOX IMVI melanoma): 14.8 µM; TGI (CAKI-1 renal): 39.5 µM; TGI (MOLT-4 leukemia): 35.2 µM; TGI (U251 CNS): 17.6 µM; TGI (SK-MEL-28 melanoma): 23.5 µM; TGI (IGROV1 ovarian): 21.2 µM; TGI (OVCAR-4 ovarian): 25.8 µM; TGI (K-562 leukemia): 16.4 µM; TGI (OVCAR-3 ovarian): 20.9 µM; TGI (A549 NSCLC): 16.8 µM; TGI (NCI-H522 lung): 16 µM; TGI (HCC-2998 colon): 15.7 µM; TGI (ACHN renal): 59.2 µM; TGI (UO-31 renal): > 100 µM; TGI (NCI-H23 lung): 15.8 µM; TGI (HOP-62 NSCLC): 18.2 µM; TGI (HOP-92 NSCLC): 18 µM; TGI (UACC-62 melanoma): 14.1 µM; TGI (XF 498 CNS): 23.6 µM; TGI (SF-539 CNS): 21.7 µM; TGI (COLO 205 colon): 28 µM; TGI (SNB-78 CNS): 27.2 µM

Question: Which results are given for `CC(C)/C=C1\CCC(CN(C)C)C1=O` (stereo not drawn)?
Answer: TGI (786-0 renal): 1.25 µM; TGI (CCRF-CEM leukemia): 5.34 µM; TGI (RXF 393 renal): 1310 nM; TGI (SW-620 colon): 1.55 µM; TGI (HCT-116 colon): 2.5 µM; TGI (SK-OV-3 ovarian): 32.4 µM; TGI (NCI-H226 lung): 83 µM; TGI (NCI-H460 lung): 40.1 µM; TGI (SF-295 CNS): 31.2 µM; TGI (SK-MEL-5 melanoma): 12.4 µM; TGI (MDA-N): 7.78 µM; TGI (M19-MEL melanoma): 33.7 µM; TGI (KM12 colon): 4.65 µM; TGI (LXFL 529 NSCLC): 2.85 µM; TGI (DMS 114 small cell lung): 10.3 µM; TGI (MDA-MB-231 breast): 3.01 µM; TGI (OVCAR-8 ovarian): 6.97 µM; TGI (SNB-19 CNS): 21.6 µM; TGI (BT-549 breast): 7.83 µM; TGI (SK-MEL-2 melanoma): 14.3 µM; TGI (SN12C renal): 16.3 µM; TGI (M14 melanoma): 5.52 µM; TGI (MALME-3M melanoma): 2.29 µM; TGI (SR leukemia): 4.53 µM; TGI (OVCAR-5 ovarian): 15.3 µM; TGI (HT29 colon): 4.84 µM; TGI (HL-60(TB) leukemia): 4.55 µM; TGI (EKVX NSCLC): 15.5 µM; TGI (SF-268 CNS): 38.8 µM; TGI (SNB-75 CNS): 6.51 µM; TGI (UACC-257 melanoma): 10.8 µM; TGI (KM20L2 colon): 28.6 µM; TGI (DLD-1 colon): 11.2 µM; TGI (HCT-15 colon): 4.68 µM; TGI (TK-10 renal): 5.96 µM; TGI (RPMI-8226 leukemia): 2.36 µM; TGI (LOX IMVI melanoma): 11.9 µM; TGI (PC-3 prostate): 14.5 µM; TGI (A498 renal): 16.7 µM; TGI (CAKI-1 renal): 4.21 µM; TGI (MOLT-4 leukemia): 3.48 µM; TGI (U251 CNS): 32.7 µM; TGI (SK-MEL-28 melanoma): 5.07 µM; TGI (IGROV1 ovarian): 11.4 µM; TGI (OVCAR-4 ovarian): 30.8 µM; TGI (K-562 leukemia): 7.85 µM; TGI (OVCAR-3 ovarian): 7.97 µM; TGI (A549 NSCLC): 17.2 µM; TGI (MCF7 breast): 1800 nM; TGI (MDA-MB-435): 3.01 µM; TGI (NCI-H522 lung): 0.22 µM; TGI (HCC-2998 colon): 19.1 µM; TGI (ACHN renal): 12.5 µM; TGI (UO-31 renal): 16.5 µM; TGI (NCI-H23 lung): 25.4 µM; TGI (HOP-62 NSCLC): 46.3 µM; TGI (HOP-92 NSCLC): 3.47 µM; TGI (UACC-62 melanoma): 32.6 µM; TGI (HOP-18 NSCLC): 8.72 µM; TGI (XF 498 CNS): 4.17 µM; TGI (SF-539 CNS): 19.8 µM; TGI (COLO 205 colon): 1.41 µM; TGI (NCI/ADR-RES ovarian): 10.6 µM; TGI (DU-145 prostate): 3.21 µM; TGI (SNB-78 CNS): 23.8 µM
